Experimental data as given in patent US11440939B2, “Anticancer peptides” (IDP DISCOVERY PHARMA, S.L., priority 2017, dated 2022).
Numbered stars: 1 amine (or outer) side, 2 acyl side, 3 side chain; on linkers, the order of the positions; unused ones are H or OH. Bridge positions count the residues as written; N and C are the ends. Square brackets hold non-standard residues; d marks the D form. Peptide text beside a SMILES is read from it. ξ: configuration not given here. ξαMeNle(6-ylidene) = CC(CCCC=[*:3])(N[*:1])C(=O)[*:2]; X1 = CC(CCCCCCC=[*:3])(N[*:1])C(=O)[*:2]; R8 = C=CCCCCCC[C@@](C)(N)C(=O)O; S5 = C=CCCC[C@](C)(N)C(=O)O

What was measured:
NCI-H526 = conditions: 72 h
Description: NCI-H526, epithelial (small cell lung cancer, SCLC), ATCC-CRL-5811;
During the amplification step and the assays, adherent cells were rinsed with DPBS (Dulbecco's Phosphate Buffered Saline, Sigma D1283) three times and afterward treated for 5 minutes with trypsin ([0.5 g/ml]/EDTA [0.2 g/ml]) (Gibco-BRL, 15400054) in solution of DPBS at 37° C., and, once detached, transferred in the culturing medium. No-adherent cells were centrifuged and transferred in the culturing medium. Cells were counted in a Neubauer chamber after labelling with Tripan-Blue. […]
MTT: 1. […] Absorbance at 570 nm was finally measured. […]

NCI-H524 = assay type: cell-based; conditions: 72 h
Description: NCI-H524, lung (small cell lung cancer, SCLC), ATCC-CRL-5831;
(§1) Cell line MCF-7 was cultured in incubator under CO2 (6%) at 37° C. in DMEM high glucose (Dulbecco's Modified Eagle Solution, Gibco-BRL 31966-21) medium with 10% fetal bovine serum inactivated (FBS) (Gibco-BRL 10106-169). Cell lines HL-60, NCI-H524, NCI-H526, NCI-H69, NCI-H82, NCI-H187 and H5B were cultured in an incubator at 37° C. in RPMI-1640 (Sigma R8758) medium with 10% of fetal bovine serum inactivated (FBS) and 2 mM glutamine (Sigma G7513). Cell line NCI-H510A was cultured in incubator in F12K medium with 10% of fetal bovine serum inactivated (FBS). Cell line GBM-18 and GBM-27 were cultured in incubator under CO2 (6%) at 37° C. in complete medium (Neurobasal+B27+Glutamax+Growth factors).
During the amplification step and the assays, adherent cells were rinsed with DPBS (Dulbecco's Phosphate Buffered Saline, Sigma D1283) three times and afterward treated for 5 minutes with trypsin ([…]) (Gibco-BRL, 15400054) in solution of DPBS at 37° C., and, once detached, transferred in the culturing medium. No-adherent cells were centrifuged and transferred in the culturing medium. Cells were counted in a Neubauer chamber after labelling with Tripan-Blue. […]
(§2) Cells were incubated during 72 h in incubator under CO2 atmosphere at 37° C. Cell viability was measured by means of MTT (3-(4,5-dimethylthiazol-2-yl)-2,5-diphenyltetrazolium bromide) assay, Alamar Blue® (Biosource DAL1100) and Hexosaminidase activity test, consecutively, following manufacturer instructions.
MTT: 1. […] Absorbance at 570 nm was finally measured.
Alamar Blue: 10 μl Alamar Blue solution was added to each well and the plates were incubated for […] in the incubator. Fluorescence ratio at 535/590 (excitation/emission) was measured in Cytofluor (Millipore) fluorimeter. Blank control was determined by lysis of untreated cells with con 2% of Triton X100, right before adding Alamar Blue solution. […]

NCI-H82 = assay type: cell-based; conditions: 72 h
Description: NCI-H82, epithelial (small cell lung cancer, SCLC), ATCC-CRL-5811;
as §1
(§3) During the amplification step and the assays, adherent cells were rinsed with DPBS (Dulbecco's Phosphate Buffered Saline, Sigma D1283) three times and afterward treated for 5 minutes with trypsin ([…]) (Gibco-BRL, 15400054) in solution of DPBS at 37° C., and, once detached, transferred in the culturing medium. No-adherent cells were centrifuged and transferred in the culturing medium. Cells were counted in a Neubauer chamber after labelling with Tripan-Blue.
(§4) MCF-7, NCI-H187, NCI-H69, NCI-H526 and H5B cells were seeded at a density of 5000 cells/well; NCI-H524 and NCI-H82 were seeded at a density of 2500 cells/well; HL-60 and NCI-H510A at 10000 cells/well in 100 μl of medium in 96 well plates. After 24 h, the compounds to be tested were added to calculate the dose/response curve at the starting concentration of 100 μM with serial dilutions (1:1). Controls were the untreated cells. Each experiment was performed in triplicate.
as §2
(§5) MTT: 1. Stock solution of MTT (475989 Calbiochem) was 5 mg/ml in PBS 1×. As negative control (experiment noise) 3 wells were treated with 20 μl/well of a solution of SDS 10% in H2O. The same control was used for Alamar Blue/Hexosaminidase. 10 μl/well of MTT solution were added and the plate was incubated for 3-4 hr. The medium was discarded and 100 μl of extracting buffer (PBS 1×, 15% SDS, 50% […] N,N-Dimethylformamide, pH 4,7) were added to each well. Plates were incubated for 16 h at room temperature under orbital shaking. Absorbance at 570 nm was finally measured.
(§6) Alamar Blue: 10 μl Alamar Blue solution was added to each well and the plates were incubated for […] in the incubator. Fluorescence ratio at 535/590 (excitation/emission) was measured in Cytofluor (Millipore) fluorimeter. Blank control was determined by lysis of untreated cells with con 2% of Triton X100, right before adding Alamar Blue solution.
(§7) Hexosaminidase activity test: after Alamar Blue lecture, medium was discarded and plates were rinsed once with PBS. 60 μl hexosaminidase substrate (p-nitrophenol-N-acetyl-beta-D-glucosamide 7.5 mM [Sigma N-9376], sodium citrate 0.1 M, pH 5.0, 0.25% Triton X-100) was added to each well and the plates were incubated at 37° C. for 2-5 h, according to the cell type (hexosaminidase activity changes according to the cell type). […] Blank control was the same as described before.
(§8) Data analysis was performed calculating the percentage of cell viability normalized vs. the values of negative control, which was considered equal to 100%. The dose/response curve was fitted through the sigmoidal equation dose-response (variable slope) and the EC50 values were calculated as follow: Y=Bottom+(Top−Bottom)/(1+10^{[(Log EC50−X)*HillSlope]},

cancer cell lines = assay: Inhibition of cancer cell proliferation, general statements; assay type: cell-based
Description: as §4, §2, §8

NCI-H510A = assay type: cell-based; conditions: 72 h
Description: (§9) NCI-510A, epithelial (small cell lung cancer, SCLC), ATCC-HBT-124; and Hepatocytes (normal liver), from a donor was provided by Foundation DTI-Donation & Transplantation Institute from surgical wastes and from organs not suitable for transplantation
as §1, §3, §4, §2, §5, §6, §7, §8

NCI-H187 = assay type: cell-based; conditions: 72 h
Description: NCI-H187, epithelial (small cell lung cancer, SCLC), ATCC-CRL-5804;
as §1, §3, §4, §2, §5, §6, §7, §8

Human hepatocytes = assay: Hepatotoxicity assay, trypan blue exclusion, 24 h; assay type: cell-based; conditions: human hepatocytes, 0.5% SDS
From the text: as §9
Human liver from a donor was subjected to hepatocyte isolation by using a two-step tissue microperfusion technique taking maximum care to avoid anoxia before cannulation, since hepatocytes are cells highly sensitive to oxygen levels. An initial anoxic state could result in a low viability of the cells, and will later affect their metabolic capacity in the culture. Briefly, liver tissue was cannulated by using the accessible vessels with a 1 mm-diameter needle. A balanced salt solution was injected to clean the organ by using a peristaltic pump adjusted to a flow rate of 18-20 ml/min. After washing, a solution containing collagenase was added for liver disintegration. The cell suspension obtained using this process was filtered and centrifuged and, after a couple of washings to remove collagenase, cells were re-suspended in culture medium Ham's F-12/William (1:1) medium supplemented with 2 mM glutamine, […] sodium selenite, 2% newborn calf serum, 50 mU/ml penicillin, 50 μg/ml streptomycin, 0.1% bovine serum albumin, 1.68 mM NAME, 26 mM sodium bicarbonate, 25 μg/ml transferrin, 65.5 μM ethanolamine, 7.2 μM linoleic acid, 17.5 mM glucose, 6.14 mM ascorbic acid and 10 nM insulin.
After resuspension, a cell aliquot was removed and viability was determined by cell counting using the trypan blue exclusion method. Trypan blue uptake is the result of cell membrane alteration and in consequence of cell death. Thus, to quantify cell viability, 0.4% trypan blue in saline was added to the cells and these were immediately loaded in a Neubauer chamber. Viable cells were counted in 5 different fields under the optical microscope as non-blue cells. % Viability=Number of non-blue cells×100/Number of total cells Viability and Hepatoxicity Assay
Human hepatocytes isolated and re-suspended as described before were seeded at 100,000 viable cells/well on 96 collagen-coated plates in order to assess compound's cytotoxicity. After 1 hour in culture, medium was renewed to eliminate cell debris. Cultured human hepatocytes were allowed to stay in culture for 24 hours prior performing the experiments. After 24 h, the compounds to be tested were added to calculate the dose/response curve at the starting concentration of 400 μM with serial dilutions. Each experiment was performed in triplicate. Cells were incubated during 24 h in incubator under CO2 atmosphere at 37° C.
The viability was determined by cell counting using the trypan blue exclusion method. % Viability=Number of non-blue cells×100/Number of total cells Statistics

SMILES | EC50 (NCI-H526) [µM] | EC50 (NCI-H524) [µM] | EC50 (NCI-H82) [µM] | inhibition of cancer cell proliferation (in words) (cancer cell lines) | EC50 (NCI-H510A) [µM] | EC50 (NCI-H187) [µM] | % Viability (Human hepatocytes) [%]
CC(C)C[C@@H]1NC(=O)[C@H](CC(N)=O)NC(=O)[C@H](C(C)C)NC(=O)C(C)(NC(=O)[C@H](CCCCN)NC(=O)[C@@H](NC(=O)[C@H](CCCNC(=N)N)NC(=O)[C@H](CC(N)=O)NC(=O)[C@@H](N)CCCNC(=N)N)C(C)C)CCCC=CCCCC(C)(C(=O)N[C@@H](Cc2ccccc2)C(=O)N[C@@H](C)C(=O)N[C@H](C(=O)N[C@@H](CC(C)C)C(=O)N[C@@H](CCCNC(=N)N)C(=O)N[C@@H](CCC(=O)O)C(=O)N[C@@H](Cc2c[nH]cn2)C(N)=O)[C@@H](C)O)NC1=O (stereo partly drawn) [H02] (H-RNRVK[ξαMeNle(6-ylidene)]VNL[ξαMeNle(6-ylidene)]FATLREH-NH2; staple 6-10; N-terminus and C-terminus assumed) | ~10 | ~15 | – | – | – | – | –
CC(C)C[C@H](NC(=O)[C@H](CCCCN)NC(=O)[C@@H](NC(=O)[C@H](CCCNC(=N)N)NC(=O)[C@H](CC(N)=O)NC(=O)[C@@H](N)CCCNC(=N)N)C(C)C)C(=O)N[C@H](C(=O)N[C@@H](CC(N)=O)C(=O)N[C@@H](CC(C)C)C(=O)N[C@]1(C)CCCCCCC=CCCC[C@@](C)(C(N)=O)NC(=O)[C@H](CCC(=O)O)NC(=O)[C@H](CCCNC(=N)N)NC(=O)[C@H](CC(C)C)NC(=O)[C@H]([C@@H](C)O)NC(=O)[C@H](C)NC(=O)[C@H](Cc2ccccc2)NC1=O)C(C)C [H04] (H-RNRVKLVNL[R8]FATLRE[S5]-NH2; staple 10-17; N-terminus and C-terminus assumed) | ~11 | ~9 | – | – | – | – | –
CC(C)C[C@H](NC(=O)[C@H](CCCCN)NC(=O)[C@@H](NC(=O)[C@@H](N)CCCNC(=N)N)C(C)C)C(=O)N[C@H](C(=O)N[C@@H](CCC(N)=O)C(=O)N[C@@H](CC(C)C)C(=O)NC1(C)CCCCCCC=CCCCC(C)(C(=O)N[C@H](C(=O)N2CCC[C@H]2C(N)=O)C(C)C)NC(=O)[C@H](CCC(=O)O)NC(=O)[C@H](CCCNC(=N)N)NC(=O)[C@H](CC(C)C)NC(=O)[C@H]([C@@H](C)O)NC(=O)[C@H](C)NC(=O)[C@H](Cc2ccccc2)NC1=O)C(C)C (stereo partly drawn) [IDP-H14-Q6] (H-RVKLVQL[X1]FATLRE[ξαMeNle(6-ylidene)]VP-NH2; staple 8-15; N-terminus and C-terminus assumed) | – | – | ~7.5 | active | ~12.5 | ~7.5 | –
CC(C)C[C@H](NC(=O)[C@H](CCCCN)NC(=O)[C@@H](NC(=O)[C@@H](N)CCCNC(=N)N)C(C)C)C(=O)N[C@H](C(=O)N[C@@H](CC(N)=O)C(=O)N[C@@H](CC(C)C)C(=O)NC1(C)CCCCCCC=CCCCC(C)(C(=O)N[C@H](C(=O)N2CCC[C@H]2C(N)=O)C(C)C)NC(=O)[C@H](CCC(N)=O)NC(=O)[C@H](CCCNC(=N)N)NC(=O)[C@H](CC(C)C)NC(=O)[C@H]([C@@H](C)O)NC(=O)[C@H](C)NC(=O)[C@H](Cc2ccccc2)NC1=O)C(C)C (stereo partly drawn) [IDP-H14-Q13] (H-RVKLVNL[X1]FATLRQ[ξαMeNle(6-ylidene)]VP-NH2; staple 8-15; N-terminus and C-terminus assumed) | – | – | ~7.5 | active | ~12.5 | ~7.5 | –
CC(C)C[C@H](NC(=O)[C@H](CCCCN)NC(=O)[C@@H](NC(=O)[C@@H](N)CCCNC(=N)N)C(C)C)C(=O)N[C@H](C(=O)N[C@@H](CC(N)=O)C(=O)N[C@@H](CC(C)C)C(=O)NC1(C)CCCCCCC=CCCCC(C)(C(=O)N[C@H](C(=O)N[C@@H](CCC(N)=O)C(N)=O)C(C)C)NC(=O)[C@H](CCC(=O)O)NC(=O)[C@H](CCCNC(=N)N)NC(=O)[C@H](CC(C)C)NC(=O)[C@H]([C@@H](C)O)NC(=O)[C@H](C)NC(=O)[C@H](Cc2ccccc2)NC1=O)C(C)C (stereo partly drawn) [IDP-H14-Q15] (H-RVKLVNL[X1]FATLRE[ξαMeNle(6-ylidene)]VQ-NH2; staple 8-15; N-terminus and C-terminus assumed) | – | – | ~7.5 | active | ~7.5 | ~7.5 | –
CC(C)C[C@H](NC(=O)[C@H](CCCCN)NC(=O)[C@@H](NC(=O)[C@@H](N)CCCNC(=N)N)C(C)C)C(=O)N[C@H](C(=O)N[C@@H](CC(N)=O)C(=O)N[C@@H](CC(C)C)C(=O)NC1(C)CCCCCCC=CCCCC(C)(C(=O)N[C@H](C(=O)N[C@@H](CO)C(N)=O)C(C)C)NC(=O)[C@H](CCC(=O)O)NC(=O)[C@H](CCCNC(=N)N)NC(=O)[C@H](CC(C)C)NC(=O)[C@H]([C@@H](C)O)NC(=O)[C@H](C)NC(=O)[C@H](Cc2ccccc2)NC1=O)C(C)C (stereo partly drawn) [IDP-H14-S15] (H-RVKLVNL[X1]FATLRE[ξαMeNle(6-ylidene)]VS-NH2; staple 8-15; N-terminus and C-terminus assumed) | – | – | ~7.5 | active | ~7.5 | ~7.5 | –
CCCCCCCCCCCCOS(=O)(=O)[O-].[Na+] [SDS, reference compound] | – | – | – | – | – | – | 13.6
